In article PMC6584016, “A new lipoxygenase from the agaric fungus Agrocybe aegerita: Biochemical characterization and kinetic properties” (PLoS ONE, 2019):

Target: T1, AaeLOX4 (Cyclocybe aegerita, UniProt A0A4D6T4S4)
T1 construct: gene lox4; codon-optimized gene in pET28a, E. coli BL21(DE3) Gold; HisTrap and gel filtration, tag cleavage not mentioned; predicted 79 kDa
T1 sequence (A0A4D6T4S4 1-710): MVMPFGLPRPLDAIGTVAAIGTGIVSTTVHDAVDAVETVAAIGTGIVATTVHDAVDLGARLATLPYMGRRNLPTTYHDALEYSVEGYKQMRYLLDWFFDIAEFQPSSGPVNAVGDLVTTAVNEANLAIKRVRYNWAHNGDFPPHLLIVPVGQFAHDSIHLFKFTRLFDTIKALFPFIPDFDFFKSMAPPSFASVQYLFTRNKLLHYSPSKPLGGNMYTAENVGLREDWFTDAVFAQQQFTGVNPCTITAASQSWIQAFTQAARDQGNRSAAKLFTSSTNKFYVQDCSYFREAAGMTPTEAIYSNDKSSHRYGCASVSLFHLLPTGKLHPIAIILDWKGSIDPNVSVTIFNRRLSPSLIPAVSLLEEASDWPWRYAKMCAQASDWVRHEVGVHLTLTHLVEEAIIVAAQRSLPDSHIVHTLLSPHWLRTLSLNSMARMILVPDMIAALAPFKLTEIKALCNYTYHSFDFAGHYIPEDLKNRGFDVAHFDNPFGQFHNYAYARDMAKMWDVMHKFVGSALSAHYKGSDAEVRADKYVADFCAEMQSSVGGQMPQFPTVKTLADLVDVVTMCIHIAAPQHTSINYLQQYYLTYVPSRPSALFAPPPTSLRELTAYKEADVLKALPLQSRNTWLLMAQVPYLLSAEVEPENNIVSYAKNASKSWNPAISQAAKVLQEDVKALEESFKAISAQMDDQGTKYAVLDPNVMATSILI
Assay: conjugated diene formation at […] nm; Lineweaver-Burk
Assay type: biochemical
Conditions: 50 mM phosphate pH 7.5, 25 °C; substrate dispersed with Tween 20; 0.025-2 mM

Row | Km [µM] | SMILES
1 | 295 | CCCCC/C=C\C/C=C\CCCCCCCC(=O)O [linoleic acid]
2 | 634 | CC/C=C\C/C=C\C/C=C\CCCCCCCC(=O)O [linolenic acid]
